Experiments:
SF-539 = assay: NCI single dose (10 µM) SRB screen; assay type: cell-based, human; details: CNS cancer, 48 h
SNB-75 = assay: NCI single dose (10 µM) SRB screen; assay type: cell-based, human; details: CNS cancer, 48 h
NCI 60 cancer cell lines = assay: NCI single dose (10 µM) SRB screen, mean over panel; assay type: cell-based, human; details: mean over 60 cell lines, 48 h
OVCAR-4 = assay: NCI single dose (10 µM) SRB screen; assay type: cell-based, human; details: ovarian cancer, 48 h
U251 = assay: NCI single dose (10 µM) SRB screen; assay type: cell-based, human; details: CNS cancer, 48 h
DU-145 = assay: NCI single dose (10 µM) SRB screen; assay type: cell-based, human; details: prostate cancer, 48 h
ACHN = assay: NCI single dose (10 µM) SRB screen; assay type: cell-based, human; details: renal cancer, 48 h
MDA-MB-435 = assay: NCI single dose (10 µM) SRB screen; assay type: cell-based, human; details: melanoma, 48 h
A498 = assay: NCI single dose (10 µM) SRB screen; assay type: cell-based, human; details: renal cancer, 48 h
NCI-H322M = assay: NCI single dose (10 µM) SRB screen; assay type: cell-based; details: non-small cell lung cancer, 48 h
Staphylococcus aureus = assay: Agar well diffusion method
SW-620 = assay: NCI single dose (10 µM) SRB screen; assay type: cell-based, human; details: colon cancer, 48 h
MALME-3M = assay: NCI single dose (10 µM) SRB screen; assay type: cell-based, human; details: melanoma, 48 h
CCRF-CEM = assay: NCI single dose (10 µM) SRB screen; assay type: cell-based, human; details: leukaemia, 48 h
786-0 = assay: NCI single dose (10 µM) SRB screen; assay type: cell-based, human; details: renal cancer, 48 h
LOX IMVI = assay: NCI single dose (10 µM) SRB screen; assay type: cell-based, human; details: melanoma, 48 h
SR = assay: NCI single dose (10 µM) SRB screen; assay type: cell-based, human; details: leukaemia, 48 h
A549/ATCC = assay: NCI single dose (10 µM) SRB screen; assay type: cell-based, human; details: non-small cell lung cancer, 48 h
NCI-H226 = assay: NCI single dose (10 µM) SRB screen; assay type: cell-based, human; details: non-small cell lung cancer, 48 h
CAKI-1 = assay: NCI single dose (10 µM) SRB screen; assay type: cell-based, human; details: renal cancer, 48 h
TK-10 = assay: NCI single dose (10 µM) SRB screen; assay type: cell-based, human; details: renal cancer, 48 h
OVCAR-3 = assay: NCI single dose (10 µM) SRB screen; assay type: cell-based, human; details: ovarian cancer, 48 h
COLO 205 = assay: NCI single dose (10 µM) SRB screen; assay type: cell-based, human; details: colon cancer, 48 h
HL-60(TB) = assay: NCI single dose (10 µM) SRB screen; assay type: cell-based, human; details: leukaemia, 48 h
IGROV1 = assay: NCI single dose (10 µM) SRB screen; assay type: cell-based, human; details: ovarian cancer, 48 h
MCF7 = assay: NCI single dose (10 µM) SRB screen; assay type: cell-based, human; details: breast cancer, 48 h
SN12C = assay: NCI single dose (10 µM) SRB screen; assay type: cell-based, human; details: renal cancer, 48 h
PC-3 = assay: NCI single dose (10 µM) SRB screen; assay type: cell-based, human; details: prostate cancer, 48 h
MDA-MB-468 = assay: NCI single dose (10 µM) SRB screen; assay type: cell-based, human; details: breast cancer, 48 h
UACC-257 = assay: NCI single dose (10 µM) SRB screen; assay type: cell-based, human; details: melanoma, 48 h
MOLT-4 = assay: NCI single dose (10 µM) SRB screen; assay type: cell-based, human; details: leukaemia, 48 h
HCT-116 = assay: NCI single dose (10 µM) SRB screen; assay type: cell-based, human; details: colon cancer, 48 h
NCI-H460 = assay: NCI single dose (10 µM) SRB screen; assay type: cell-based, human; details: non-small cell lung cancer, 48 h
SNB-19 = assay: NCI single dose (10 µM) SRB screen; assay type: cell-based, human; details: CNS cancer, 48 h
SF-295 = assay: NCI single dose (10 µM) SRB screen; assay type: cell-based, human; details: CNS cancer, 48 h
KM12 = assay: NCI single dose (10 µM) SRB screen; assay type: cell-based, human; details: colon cancer, 48 h
Escherichia coli = assay: Agar well diffusion method
SK-MEL-5 = assay: NCI single dose (10 µM) SRB screen; assay type: cell-based, human; details: melanoma, 48 h
OVCAR-8 = assay: NCI single dose (10 µM) SRB screen; assay type: cell-based, human; details: ovarian cancer, 48 h
SF-268 = assay: NCI single dose (10 µM) SRB screen; assay type: cell-based, human; details: CNS cancer, 48 h
NCI-H522 = assay: NCI single dose (10 µM) SRB screen; assay type: cell-based, human; details: non-small cell lung cancer, 48 h
NCI-H23 = assay: NCI single dose (10 µM) SRB screen; assay type: cell-based, human; details: non-small cell lung cancer, 48 h
NCI/ADR-RES = assay: NCI single dose (10 µM) SRB screen; assay type: cell-based, human; details: ovarian cancer, 48 h
Aspergillus flavus = assay: Agar well diffusion method
SK-OV-3 = assay: NCI single dose (10 µM) SRB screen; assay type: cell-based, human; details: ovarian cancer, 48 h
SK-MEL-28 = assay: NCI single dose (10 µM) SRB screen; assay type: cell-based, human; details: melanoma, 48 h
M14 = assay: NCI single dose (10 µM) SRB screen; assay type: cell-based, human; details: melanoma, 48 h
OVCAR-5 = assay: NCI single dose (10 µM) SRB screen; assay type: cell-based, human; details: ovarian cancer, 48 h
RXF 393 = assay: NCI single dose (10 µM) SRB screen; assay type: cell-based, human; details: renal cancer, 48 h
RPMI-8226 = assay: NCI single dose (10 µM) SRB screen; assay type: cell-based, human; details: leukaemia, 48 h
HT29 = assay: NCI single dose (10 µM) SRB screen; assay type: cell-based, human; details: colon cancer, 48 h
Bacillus subtilis = assay: Agar well diffusion method

## COCCOC(=O)C1=C(C)NC(C)=C(C(=O)OC)C1c1cccc(C#N)c1 (racemic) [Compound 2d, (±)-3-(2-Methoxyethyl) 5-methyl 4-(3-cyanophenyl)-2,6-dimethyl-1,4-dihydropyridine-3,5-dicarboxylate]
SF-539
  GI% SF-539: – (Only GI% ≥ 10 are shown)
SNB-75
  GI% SNB-75: 15%
NCI 60 cancer cell lines
  Mean GI%: −2%
OVCAR-4
  GI% OVCAR-4: – (Only GI% ≥ 10 are shown)
U251
  GI% U251: – (Only GI% ≥ 10 are shown)
DU-145
  GI% DU-145: – (Only GI% ≥ 10 are shown)
ACHN
  GI% ACHN: – (Only GI% ≥ 10 are shown)
MDA-MB-435
  GI% MDA-MB-435: – (Only GI% ≥ 10 are shown)
A498
  GI% A498: 12%
NCI-H322M
  GI% NCI-H322M: – (Only GI% ≥ 10 are shown)
Staphylococcus aureus; Staphylococcus aureus, 24 h, read-out: Diameter of inhibition zone, S. aureus
  zone of inhibition at 1000 µg/mL: 15 mm
Staphylococcus aureus; relative to ciprofloxacin
  % activity index, S. aureus: 62.5%
SW-620
  GI% SW-620: – (Only GI% ≥ 10 are shown)
MALME-3M
  GI% MALME-3M: – (Only GI% ≥ 10 are shown)
CCRF-CEM
  GI% CCRF-CEM: – (Only GI% ≥ 10 are shown)
786-0
  GI% 786-0: – (Only GI% ≥ 10 are shown)
LOX IMVI
  GI% LOX IMVI: – (Only GI% ≥ 10 are shown)
SR
  GI% SR: – (Only GI% ≥ 10 are shown)
A549/ATCC
  GI% A549/ATCC: – (Only GI% ≥ 10 are shown)
NCI-H226
  GI% NCI-H226: – (Only GI% ≥ 10 are shown)
CAKI-1
  GI% CAKI-1: – (Only GI% ≥ 10 are shown)
TK-10
  GI% TK-10: – (Only GI% ≥ 10 are shown)
OVCAR-3
  GI% OVCAR-3: – (Only GI% ≥ 10 are shown)
COLO 205
  GI% COLO 205: – (Only GI% ≥ 10 are shown)
HL-60(TB)
  GI% HL-60(TB): – (Only GI% ≥ 10 are shown)
IGROV1
  GI% IGROV1: – (Only GI% ≥ 10 are shown)
MCF7
  GI% MCF7: – (Only GI% ≥ 10 are shown)
SN12C
  GI% SN12C: – (Only GI% ≥ 10 are shown)
PC-3
  GI% PC-3: – (Only GI% ≥ 10 are shown)
MDA-MB-468
  GI% MDA-MB-468: – (Only GI% ≥ 10 are shown)
UACC-257
  GI% UACC-257: – (Only GI% ≥ 10 are shown)
MOLT-4
  GI% MOLT-4: – (Only GI% ≥ 10 are shown)
HCT-116
  GI% HCT-116: – (Only GI% ≥ 10 are shown)
NCI-H460
  GI% NCI-H460: – (Only GI% ≥ 10 are shown)
SNB-19
  GI% SNB-19: – (Only GI% ≥ 10 are shown)
SF-295
  GI% SF-295: – (Only GI% ≥ 10 are shown)
KM12
  GI% KM12: – (Only GI% ≥ 10 are shown)
Escherichia coli; Escherichia coli, 24 h, read-out: Diameter of inhibition zone, E. coli
  zone of inhibition at 1000 µg/mL: 10 mm
Escherichia coli; relative to ciprofloxacin
  % activity index, E. coli: 38.5%
SK-MEL-5
  GI% SK-MEL-5: – (Only GI% ≥ 10 are shown)
OVCAR-8
  GI% OVCAR-8: – (Only GI% ≥ 10 are shown)
SF-268
  GI% SF-268: – (Only GI% ≥ 10 are shown)
NCI-H522
  GI% NCI-H522: – (Only GI% ≥ 10 are shown)
NCI-H23
  GI% NCI-H23: – (Only GI% ≥ 10 are shown)
NCI/ADR-RES
  GI% NCI/ADR-RES: – (Only GI% ≥ 10 are shown)
Aspergillus flavus; Aspergillus flavus, 24 h, read-out: Diameter of inhibition zone, A. flavus
  zone of inhibition at 1000 µg/mL: 15 mm
Aspergillus flavus; relative to clotrimazole
  % activity index, A. flavus: 60%
SK-OV-3
  GI% SK-OV-3: – (Only GI% ≥ 10 are shown)
SK-MEL-28
  GI% SK-MEL-28: – (Only GI% ≥ 10 are shown)
M14
  GI% M14: – (Only GI% ≥ 10 are shown)
OVCAR-5
  GI% OVCAR-5: – (Only GI% ≥ 10 are shown)
RXF 393
  GI% RXF 393: – (Only GI% ≥ 10 are shown)
RPMI-8226
  GI% RPMI-8226: – (Only GI% ≥ 10 are shown)
HT29
  GI% HT29: – (Only GI% ≥ 10 are shown)
Bacillus subtilis; Bacillus subtilis, 24 h, read-out: Diameter of inhibition zone, B. subtilis
  zone of inhibition at 1000 µg/mL: 10 mm
Bacillus subtilis; relative to ciprofloxacin
  % activity index, B. subtilis: 43.5%

Source: PMC9481151, “Discovery of new symmetrical and asymmetrical nitrile-containing 1,4-dihydropyridine derivatives as dual kinases and P-glycoprotein inhibitors: synthesis, in vitro assays, and in silico studies” (Journal of Enzyme Inhibition and Medicinal Chemistry, 2022)
